One assay relates to RPMI 8226 tumor. The experiment in a line: RPMI 8226 human myeloma tumor xenograft. It is filed as in vivo, CB17 SCID mice. The procedure:
Nude mice (CB17 SCID, aged 4-5 weeks, weight 18-22 gm, female mice obtained from Harlan) were injected sc with RPMI 8226 cells harvested from tissue culture (˜1×10^7 cells/mouse). When tumors grew to approximately 100 mm^3 in size, animals were pair-matched by tumor size into treatment and control groups (10 mice per group). Initial dosing began Day 1 following pair-matching. Animals in all groups were dosed by weight (0.01 ml per gram; 10 ml/kg). […] Bortezomib was administered by intravenous injection via tail vein once every three days for six treatments (Q3D×6).
Individual and group mean tumor volumes±SEM are recorded twice weekly until study completion beginning Day 1. Final mean tumor volume±SEM for each group are reported at study completion; animals experiencing partial or complete tumor regressions or animals experiencing technical or drug-related deaths are censored from these calculations.
(In general: Xenograft models place foreign cells or tissue in a host animal.)

Assay [1] relates to Matrigel plug neovascularization. Briefly: In vivo Matrigel plug assay for neovascularization (S1P, VEGF, bFGF). On the set-up: species or system mice. The method, then: Based on in vivo studies showing that S1P increased endothelial capillary growth into subcutaneously implanted Matrigel plugs, we speculated that SPHINGOMAB could reduce de novo BV formation in vivo. To investigate this, we employed the in vivo Matrigel Plug assay for neovascularization. In one set of experiments, Matrigel was supplemented with either 1 μM S1P, 0.5 μg/mL bFGF or 1 μg/mL VEGF and then […]. into mice (n=4). After 10 days, the mice were heparinized and injected with the fluorescent lectin, Isolectin B4-FITC, which binds to adhesion molecules expressed by vascular EC that form the growing BVs. The plugs were then excised, frozen in OCT, sectioned and viewed for FITC-stained BVs.
Sections of the plugs were then stained with hemotoxyln & eosin for evaluation of EC infiltration (FIG. 6B). The infiltration of ECs is a critical step in neo-vascularization. […] Cell infiltration is presumed to be ECs although we recognize that other cell types such as immune cells may also be stained.
Endogenous S1P from the blood and surrounding tissue could supply a wound with pro-angiogenic stimuli. The ability of SPHINGOMAB to reduce endogenous S1P in a wound was investigated. Optimally stimulated plugs (Matrigel supplemented with 0.5 μg/mL bFGF or […] VEGF) were implanted into mice. Mice received i.p. injections of 25 mg/kg SPHINGOMAB or saline every 48 hrs starting 1 day prior to Matrigel implantation. Each treatment group (Matrigel, Matrigel plus GF or Matrigel plus GF and administered SPHINGOMAB) consisted of a minimum of 6 mice. After 10 days, the mice were treated with heparin, injected with Isolectin B4-FITC, the plugs excised, embedded in OCT freezing medium and sectioned.

The mark [2] stands for this setting: LT1009 50 mg/kg IP Q3D to end, Bortezomib iv Q3D×6.
Where [3] appears, read: 25 mg/kg i.p. every 48 hrs, 10 days.

“LT1009: humanized anti-S1P IgG1/kappa mAb with Cys to Ala in HCDR2, light chain with 5 backmutations; SEQ ID NO: 31/32”: in the assay on RPMI 8226 tumor (LT1009 25 mg/kg IP Q3D to end), the “% Reduction compared to Vehicle-Treated Mice” value is on record as 11% and the “Final Tumor Weights” value turned out to be 1860 mg. Moreover, in the assay on RPMI 8226 tumor (setting [2]), the “% Reduction compared to Vehicle-Treated Mice” value is 5% and the “Final Tumor Weights” value is recorded as 1978 mg.

B1: LT1002: murine anti-S1P monoclonal antibody, IgG1 kappa, from hybridoma clone 306D326.26 (antibody, listed as Mus sp., V domains shown)
VH: QAHLQQSDAELVKPGASVKISCKVSGFIFIDHTIHWMKQRPEQGLEWIGCISPRHDITKYNEMFRGKATLTADKSSTTAYIQVNSLTFEDSAVYFCARGGFYGSTIWFDFWGQGTTLTVS
VL: ETTVTQSPASLSMAIGEKVTIRCITTTDIDDDMNWFQQKPGEPPNLLISEGNILRPGVPSRFSSSGYGTDFLFTIENMLSEDVADYYCLQSDNLPFTFGSGTKLEIK
For the molecule B1, in assay [1] (setting [3]), the “decrease in neovascularization of VEGF-containing plugs vs saline-treated animals” value was 5 fold and the “decrease in neovascularization of bFGF-containing plugs vs saline-treated animals” value was found to be 8.5 fold. The “EC infiltration into S1P-containing Matrigel plugs” value in assay [1] (systemic, every 48 hrs) is “reduced amount of EC infiltration”.

These data come from patent US8026342B2, “Compositions and methods for binding sphingosine-1-phosphate” (Lpath, Inc., priority 2006, dated 2011).
